# Measurements as given in patent US12630528B2, “Amino aryl derivative useful as diacylglycerol acyltransferase 2 inhibitor and use thereof” (LG CHEM, LTD., priority 2019, dated 2026).
# Target: T1, human DGAT2 (Homo sapiens, UniProt Q96PD7)
# T1 construct: FLAG (DYKDDDDK); made in house; host or cells: Sf-21 insect cells (BacPAK baculovirus system); membrane fraction used
# T1 sequence (Q96PD7 1-388): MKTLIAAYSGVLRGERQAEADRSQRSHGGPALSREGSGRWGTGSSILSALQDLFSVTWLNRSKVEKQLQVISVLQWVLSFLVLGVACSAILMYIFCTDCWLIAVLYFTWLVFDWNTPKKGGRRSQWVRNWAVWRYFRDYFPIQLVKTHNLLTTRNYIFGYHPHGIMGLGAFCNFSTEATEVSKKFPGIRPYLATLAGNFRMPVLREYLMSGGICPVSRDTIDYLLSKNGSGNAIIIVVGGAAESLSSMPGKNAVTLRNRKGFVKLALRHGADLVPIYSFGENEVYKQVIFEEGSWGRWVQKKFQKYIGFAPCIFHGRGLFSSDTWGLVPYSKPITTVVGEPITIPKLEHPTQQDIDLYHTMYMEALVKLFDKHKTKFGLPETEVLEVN
# Assay: DGAT2 enzyme activity inhibition, Phospholipid FlashPlate SPA
# Type: biochemical
# Details: recombinant human DGAT2 membrane protein from Sf-21 cells; inhibition of [14C]-TG production; 37° C.
# Summary of the method: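 Sf-21 membranes expressing recombinant human DGAT2 (2 μg) preincubated with compound (3 nM–10 μM, 1% DMSO) and 50 μM 1,2 sn-oleoyl glycerol, 20 min at 37 °C, then 1 μM [14C]oleoyl-CoA for 15 min. [14C]-TG counted by SPA; inhibition as % of untreated.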
row,IC50 [nM],Structure (SMILES)
1,1200,"CCOc1ccccc1O[C@@H]1CCCN(c2ccnc(Nc3nccc(-c4ccc(CC(C)(C)C(=O)O)cc4)n3)n2)C1 [Example 156, (R)-3-(4-(2-((4-(3-(2-ethoxyphenoxy)piperidin-1-yl)pyrimidin-2-yl)amino)pyrimidin-4-yl)phenyl)-2,2-dimethylpropanoic Acid]"
2,330,"CCOc1ccccc1O[C@@H]1CCCN(c2cncc(Nc3cccc(N4CCC(CC(=O)O)CC4)n3)n2)C1 [Example 57, (R)-2-(1-(6-((6-(3-(2-ethoxyphenoxy)piperidin-1-yl)pyrazin-2-yl)amino)pyridin-2-yl)piperidin-4-yl)acetic Acid]"
3,410,CCOc1cccnc1O[C@@H]1CCCN(c2ccnc(Nc3nccc(C(C)(C)C(=O)O)n3)n2)C1 [Example 116]
4,3700,"CCOc1ccccc1O[C@@H]1CCCN(c2cncc(Nc3cc(-c4cccc(C(C)(C)C(=O)O)c4)ccn3)n2)C1 [Example 42, (R)-2-(3-(2-((6-(3-(2-ethoxyphenoxy)piperidin-1-yl)pyrazin-2-yl)amino)pyridin-4-yl)phenyl)-2-methylpropanoic Acid]"
5,290,"CCOc1ccccc1O[C@@H]1CCCN(c2cncc(Nc3cccc(-c4cc(CC(C)(C)C(=O)O)ccc4F)n3)n2)C1 [Example 78, (R)-3-(3-(6-((6-(3-(2-ethoxyphenoxy)piperidin-1-yl)pyrazin-2-yl)amino)pyridin-2-yl)-4-fluorophenyl)-2,2-dimethylpropanoic Acid]"
6,270,"CCOc1ccccc1O[C@@H]1CCCN(c2cncc(Nc3nnnn3C)n2)C1 [Example 23, (R)-6-(3-(2-ethoxyphenoxy)piperidin-1-yl)-N-(1-methyl-1H-tetrazol-5-yl)pyrazin-2-amine]"
7,550,"CCOc1ccccc1O[C@@H]1CCCN(c2cncc(Nc3cc(C(C)(C)COCCOC)no3)n2)C1 [Example 8, (R)—N-(6-(3-(2-ethoxyphenoxy)piperidin-1-yl)pyrazin-2-yl)-3-(1-(2-methoxyethoxy)-2-methylpropan-2-yl)isooxazol-5-amine]"
8,200,"CCOc1cccnc1O[C@@H]1CCCN(c2cncc(Nc3cccc(-c4cccc(OC(C)(C)C(=O)O)c4)n3)n2)C1 [Example 81, (R)-2-(3-(6-((6-(3-((3-ethoxypyridin-2-yl)oxy)piperidin-1-yl)pyrazin-2-yl)amino)pyridin-2-yl)phenoxy)-2-methylpropanoic Acid]"
9,160,"CCOc1ccccc1O[C@@H]1CCCN(c2cncc(Nc3nccc(N4CCC[C@@H](CC(=O)O)C4)n3)n2)C1 [Example 128, 2-((S)-1-(2-((6-((R)-3-(2-ethoxyphenoxy)piperidin-1-yl)pyrazin-2-yl)amino)pyrimidin-4-yl)piperidin-3-yl)acetic Acid]"
10,250,"CCOc1ccccc1O[C@@H]1CCCN(c2cncc(Nc3cccc(-c4ccc(NC(C)(C)C(=O)O)cc4)n3)n2)C1 [Example 77, (R)-2-((4-(6-((6-(3-(2-ethoxyphenoxy)piperidin-1-yl)pyrazin-2-yl)amino)pyridin-2-yl)phenyl)amino)-2-methylpropanoic Acid]"
11,600,"CCOc1ccccc1O[C@@H]1CCCN(c2cncc(Nc3cc(-c4ccccc4)ccn3)n2)C1 [Example 41, (R)-6-(3-(2-ethoxyphenoxy)piperidin-1-yl)-N-(4-phenylpyridin-2-yl)pyrazin-2-amine]"
12,320,"CCOc1ccccc1O[C@@H]1CCCN(c2cncc(Nc3ncc(F)c(-c4cccc(CC(C)(C)C(=O)O)c4)n3)n2)C1 [Example 164, (R)-3-(3-(2-((6-(3-(2-ethoxyphenoxy)piperidin-1-yl)pyrazin-2-yl)amino)-5-fluoropyrimidin-4-yl)phenyl)-2,2-dimethylpropanoic Acid]"

# Further lines, the molecule ahead of its results:
row,Structure (SMILES),IC50 [nM]
1,"CCOc1cccnc1O[C@@H]1CCCN(c2cncc(Nc3nccc(-c4ccc(CC(=O)O)cc4)n3)n2)C1 [Example 152, (R)-2-(4-(2-((6-(3-((3-ethoxypyridin-2-yl)oxy)piperidin-1-yl)pyrazin-2-yl)amino)pyrimidin-4-yl)phenyl)acetic Acid]",810
2,CCOc1ccccc1O[C@@H]1CCCN(c2cncc(Nc3ccc(C(C)(C)C(=O)O)cn3)n2)C1 [Example 49],> 10000
3,"CCOc1ccccc1O[C@@H]1CCCN(c2cncc(Nc3ccc(-c4cccc(CC(C)(C)C(=O)O)c4)nc3)n2)C1 [Example 48, (R)-3-(3-(5-((6-(3-(2-ethoxyphenoxy)piperidin-1-yl)pyrazin-2-yl)amino)pyridin-2-yl)phenyl)-2,2-dimethylpropanoic Acid]",1800
4,"CCOc1cccnc1O[C@@H]1CCCN(c2cncc(Nc3cccc(-c4cc(OC(C)(C)C(=O)O)ccc4F)n3)n2)C1 [Example 85, (R)-2-(3-(6-((6-(3-((3-ethoxypyridin-2-yl)oxy)piperidin-1-yl)pyrazin-2-yl)amino)pyridin-2-yl)-4-fluorophenoxy)-2-methylpropanoic Acid]",220
5,"CCOc1ccccc1O[C@@H]1CCCN(c2cncc(Nc3ccc(C(=O)O)cn3)n2)C1 [Example 32, (R)-6-((6-(3-(2-ethoxyphenoxy)piperidin-1-yl)pyrazin-2-yl)amino)nicotinic Acid]",> 10000
6,"CCOc1ccccc1O[C@@H]1CCCN(c2cncc(Nc3nccc(-c4cccc(OC(C)(C)C(=O)O)c4)n3)n2)C1 [Example 176, (R)-2-(3-(2-((6-(3-(2-ethoxyphenoxy)piperidin-1-yl)pyrazin-2-yl)amino)pyrimidin-4-yl)phenoxy)-2-methylpropanoic Acid]",590
7,"CCOc1cccnc1O[C@@H]1CCCN(c2cncc(Nc3ncc(C(F)(F)F)c(-c4cccc(CC(C)(C)C(=O)O)c4)n3)n2)C1 [Example 165, (R)-3-(3-(2-((6-(3-((3-ethoxypyridin-2-yl)oxy)piperidin-1-yl)pyrazin-2-yl)amino)-5-(trifluoromethyl)pyrimidin-4-yl)phenyl)-2,2-dimethylpropanoic Acid]",64
8,"CCOc1ccccc1O[C@@H]1CCCN(c2cncc(Nc3nccc(N4CCC[C@@H](OC(C)(C)C(=O)O)C4)n3)n2)C1 [Example 133, 2-(((R)-1-(2-((6-((R)-3-(2-ethoxyphenoxy)piperidin-1-yl)pyrazin-2-yl)amino)pyrimidin-4-yl)piperidin-3-yl)oxy)-2-methylpropanoic Acid]",3600
9,"CCOc1ccccc1O[C@@H]1CCCN(c2cncc(Nc3cc(CC(C)(C)C(=O)O)ccn3)n2)C1 [Example 39, (R)-3-(2-((6-(3-(2-ethoxyphenoxy)piperidin-1-yl)pyrazin-2-yl)amino)pyridin-4-yl)-2,2-dimethylpropanoic Acid]",2700
10,"CCOc1cccnc1O[C@@H]1CCCN(c2cncc(Nc3ccc(F)c(-c4cccc(OC(C)(C)C(=O)O)c4)n3)n2)C1 [Example 105, (R)-2-(3-(6-((6-(3-((3-ethoxypyridin-2-yl)oxy)piperidin-1-yl)pyrazin-2-yl)amino)-3-fluoropyridin-2-yl)phenoxy)-2-methylpropanoic Acid]",500
11,"CCOc1ccccc1O[C@@H]1CCCN(c2cncc(Nc3nc(-c4ccccc4)cs3)n2)C1 [Example 4, (R)—N-(6-(3-(2-ethoxyphenoxy)piperidin-1-yl)pyrazin-2-yl)-4-phenylthiazol-2-amine]",> 10000
12,CCOc1cccnc1O[C@@H]1CCCN(c2cncc(Nc3nccc(Oc4ccc(CC(=O)O)cc4)n3)n2)C1 [Example 163],860
